Laboratory results taken from patent US20160318844A1, “PROSTACYCLIN COMPOUNDS, COMPOSITIONS AND METHODS OF USE THEREOF” (Insmed Incorporated, priority 2015, published 2016).

Legend:
[1] = Treprostinil alkyl ester conversion to treprostinil in rat lung tissue homogenate; assay type: in vitro ADME; conditions: 37° C., 200 nM, 10 mg/mL of protein
Procedure: Here, data were calculated based on fit of exponential increase to the maximum (experiments performed in duplicate). The results of this study are provided below in Table 2A and FIG. 37. […] In this experiment, treprostinil alkyl esters were incubated for 4 hours at a final concentration of 200 nM in 1 mL of tissue homogenate prepared in water and normalized to 10 mg/mL of protein.
C12-TR was incubated for 4 hours at a final concentration of 200 nM in 1 mL of tissue homogenate prepared in water and normalized to 10 mg/mL of protein. Both FIG. 37 experiments (eft and right graphs) were performed in duplicate and the lines represent nonlinear exponential regression assuming 1 phase decay. Table 2A. Rate of treprostinil alkyl ester conversion in the presence of rat, dog or monkey lung tissue homogenate.

CHO-K1 cells = assay: CHO-K1 cell proliferation assay (Presto Blue); conditions: for Effect on cell proliferation, CHO-K1 Cells: detectable cell inhibition: Table 9, unformulated alkyl esters, (0.195 μM-25 μM), 48 hour incubation
Procedure: CHO-K1 cells were harvested when the cell monolayer was 50-90% confluent (use passage 4-11). Media was aspirated out of the flask, and cells were rinsed with 2 mL of F12 media. Next, 1 mL of pre-warmed (37° C.) 0.25% trypsin-EDTA (Life Technologies, Cat#: 25300054) was added, and cells were dislodged from the flask by tapping it on the side. Complete growth media (F12 (Life Technologies, Cat #: 31765092)+10% FBS (Hyclone, Cat #: SH30071.03)+1× Pen-Strep (Life Technologies, cat #15140-122) was then added at a volume of 10 mL. Cells were centrifuged at 250×g for 5 minutes at room temperature, and the media was aspirated. The cell pellet was resuspended in 10 mL complete growth media. Cell number was determined using a hemacytometer. Cells were then seeded at 2000 cells per well of a 96-well plate in 100 μL of complete growth media. The plate was incubated overnight at 37° C. and 5% CO2 in a water-jacketed incubator.
The next day, 80 μL of fresh complete media was added to each well, and CHO-K1 cells were challenged with treprostinil compound and composition treatments. The working solutions were prepared at 10× concentration, and following 2 fold serial dilutions, 20 μL aliquots were added per well to arrive at a final 1× concentration. Following a 48 hour incubation at 37° C. and 5% CO2 in a water-jacketed incubator, the inhibitory effect on cell proliferation was determined. Plates were analyzed using 20 μL of Presto Blue reagent (Life Technologies, cat #: A13262) per well. The reagent was mixed, and plates were incubated for 1 hour at 37° C. and 5% CO2 in a waterjacketed incubator. Plates were read using either a CytoFluor Series 4000 (PerSeptive BioSystems) or Synergy Neo microplate reader (BioTek) with emission λ: 590 nm and excitation λ: 560 nm. […]
CHO-K1 cells were challenged with treprostinil alkyl esters, i.e., TR compounds of Formula (A), having the following R2 groups: […]
C2, C3, C4, C5, C6, C8, C10 or C12 straight chain alkyl, at dosages ranging from 0.098 μM to 25 μM. Following a 48 hour incubation period, the inhibitory effect on cell proliferation was determined.
Following a 72 hour incubation period, the inhibitory effect on cell proliferation was determined. Following a 48 hour incubation period, the inhibitory effect on cell proliferation was determined. […]

beagle dogs = assay: Clinical signs in dogs after inhalation; conditions: targeted dose of 18 μg/kg
Procedure: Dosimetry was performed in propofol-anesthetized dogs in which nebulized drugs were introduced into a mixing chamber interposed on the inspiratory limb of a canine respirator. Technical trials were performed before each experiment to measure the concentration of drug (μg/L) delivered for each breath. The inhaled drug dose (μg/kg) was calculated using the formula: Inhaled Drug Dose (μg/kg)=Drug Conc. (μg/L)×Minute Ventilation (L/min.)×Time (min.)/Body Weight (kg). […] Clinical signs were monitored over this 72 hr. period.
Dosimetry was performed in propofol-anesthetized, artificially ventilated dogs in which nebulized drugs were introduced into a mixing chamber interposed on the inspiratory limb of the respirator. Technical trials were performed before each experiment measuring the concentration of drug (μg/L) per breath, minute ventilation and time required to achieve a targeted pulmonary dose. […] Clinical signs (cough, rapid shallow breathing, emesis and pale gums) were also monitored.

physchem = conditions: organic solvent or mixture, thermodynamic from solid
Procedure: Selected treprostinil derivatives were evaluated for the use in a metered dose inhaler (MDI).
5 mg of each treprostinil compound was added in a glass bottle. Specific amount of ethanol was added by weight. An MDI valve was crimped to each bottle, and HFA propellant added through the valve to the total volume of 5 mL. Compounds were allowed to dissolve for 24 hours at room temperature. The formulations were assessed visually for solubility. The goal was to estimate the minimum ethanol concentration required to solubilize each compound in propellant.
Soluble samples presented as clear and colorless solutions. […] Non-soluble samples had white precipitate or crystals formed. Ethanol was added as a solubility aid.

In the case of CCCCCCCCCCCCOC(=O)COc1cccc2c1C[C@H]1C[C@@H](O)[C@H](CC[C@@H](O)CCCCC)[C@H]1C2 [Compound C12-TR, dodecyl-treprostinil], the “Rate of treprostinil alkyl ester conversion” value [1] is reported as 1.1 nmOL/h * g of protein, the “Effect on cell proliferation, CHO-K1 Cells: detectable cell inhibition” value (CHO-K1 cells) is reported as “No detectable cell inhibition” and the adverse clinical signs (beagle dogs) is reported as “Adverse clinical signs were seen”. For the same compound, the solubility at 24 h (physchem; Solubility in HFA-134a with added ethanol) was > 1000 µg/mL and the solubility at 24 h (physchem; Solubility in HFA-227 with added ethanol) was > 1000 µg/mL.
With CCCCCCCCOC(=O)COc1cccc2c1C[C@H]1C[C@@H](O)[C@H](CC[C@@H](O)CCCCC)[C@H]1C2 [Compound C8-TR, treprostinil octyl ester] the “Rate of treprostinil alkyl ester conversion” value [1] was 32.5 nmOL/h * g of protein, the “Effect on cell proliferation, CHO-K1 Cells: detectable cell inhibition” value (CHO-K1 cells) was 25 µM and the “inhibition of CHO-K1 cell proliferation” value (CHO-K1 cells; unformulated alkyl esters, highest concentration, 48 hour) was “showed inhibition of cell proliferation”.
